Results: patent US20120082736A1, “Small-molecule TNF modulator to reduce the side effects of chemotherapy and radiotherapy” (GeneBlue Corporation, priority 2010, published 2012)
“Also recorded” adds a separate entry of the source.

Tests used:
[1] = tested on: BDF1 female mice treated with cisplatin; assay: Effect of pretreatment on BUN/creatinine, AST/ALT, WBC/platelet in blood of cisplatin-treated mice (Example 2); format: in vivo; details: daily ×5, blood day 6
Description: Gp 1: medium (saline). Gp 2: saline followed by cisplatin (2.5 mg/kg) 30 min later. Gp 3: UTL-5g (15 mg/kg) followed by cisplatin (2.5 mg/kg) 30 min later. Gp 4: UTL-5g (30 mg/kg) followed by cisplatin (2.5 mg/kg) 30 min later. Gp 5: UTL-5g (60 mg/kg) followed by cisplatin (2.5 mg/kg) 30 min later. Gp 6: amifostine (200 mg/kg) followed by cisplatin (2.5 mg/kg) 30 min later; Gp 7: saline followed by cisplatin (5 mg/kg) 30 min later. Gp 1-Gp 6 were daily ×5, but Gp 7 was by single dose on day 0 only. StDev is shown for each Gp (n=5 for each group except for Gp 7, n=3). ** two-tailed p<0.005 vs medium control by Student's t-test.
(§1) Gp 1: medium (saline). Gp 2: saline followed by cisplatin (2.5 mg/kg) 30 min later. Gp 3: UTL-5g (15 mg/kg) followed by cisplatin 30 min later. Gp 4: UTL-5g (30 mg/kg) followed by cisplatin (2.5 mg/kg) 30 min later. Gp 5: UTL-5g (60 mg/kg) followed by cisplatin (2.5 mg/kg) 30 min later. Gp 6: amifostine (200 mg/kg) followed by cisplatin (2.5 mg/kg) 30 min later. Gp 7: saline followed by cisplatin (5 mg/kg) 30 min later. Gp 1-Gp 6 were daily ×5, but Gp 7 was by single dose on day 0 only. StDev is shown for each Gp (n=5 for each group except n=4 for Gp 7). * P<0.05, ** p<0.005 vs. medium control (Gp 1) by Student's t-test (two-tailed).
as §1, with “p<0.005, *** p<0.0005” for “p<0.005”, “control” for “control (Gp 1)”
BDF1 female mice (average wt ˜20 g/mouse) were randomly divided into the following groups (5 mice per group) and each treated daily ×5 (starting from day 0) by ip injection (0.25 mL/mouse), except in Gp 7, each was treated by a single dose ip injection (0.25 mL/mouse) on day 0 only, as described below • Gp 1: medium (saline) followed by medium (saline) 30 min later • Gp 2: medium (saline) followed by cisplatin (2.5 mg/kg) 30 min later • Gp 3: UTL-5g (15 mg/kg) followed by cisplatin (2.5 mg/kg) 30 min later • Gp 4: UTL-5g (30 mg/kg) followed by cisplatin (2.5 mg/kg) 30 min later • Gp 5: UTL-5g (60 mg/kg) followed by cisplatin (2.5 mg/kg) 30 min later • Gp 6: amifostine (200 mg/kg) followed by cisplatin (2.5 mg/kg) 30 min later • Gp 7: medium (saline) followed by cisplatin (5 mg/kg) 30 min later (single dose on Day 0 only)
Preparation of the test samples are described below: • Cisplatin: Cisplatin was dissolved in saline (0.2 and 0.4 mg/mL in saline) for 2.5 and 5 mg/kg ip injection. • UTL-5g: The stock solution of UTL-5g was first dissolved in DMSO and equal volume of Cremophor/propylene glycol (60/40 v/v) was added to make a stock solution. Immediately before the injection, saline was added to this temporary solution at a 90:10 v/v ratio and mixed thoroughly. Three concentrations for ip injection were prepared (1.25, 2.5, and 5 mg/mL) so that the doses are equivalent to 15, 30, and 60 mg/kg with a 0.25 mL injection. • Amifostine: The stock solution of amifostine was dissolved in saline to the desired concentration (16 mg/mL) for the 200 mg/kg injection.
Cardiac puncture was used to obtain blood from each mouse on day 6. To assess liver/kidney protection by UTL-5g, all blood samples were analyzed for BUN, creatinine, AST, and ALT by the chemistry lab at Henry Ford Health System. Unopette® (Becton Dickinson, Franklin Lakes, N.J.) diluting systems and a hemocytometer were used to assess the effect of UTL-5g on WBC and platelet counts in blood.

BDF1 mice = assay: Add-on study: does UTL-5g increase platelet count by itself (Example 3); format: in vivo
Description: Gp 1: medium (saline). Gp 2: saline followed by cisplatin (2.5 mg/kg) 30 min later. Gp 3: UTL-5g (15 mg/kg) followed by cisplatin 30 min later. Gp 4: UTL-5g (30 mg/kg) followed by cisplatin (2.5 mg/kg) 30 min later. Gp 5: UTL-5g (60 mg/kg) followed by cisplatin (2.5 mg/kg) 30 min later. Gp 6: amifostine (200 mg/kg) followed by cisplatin (2.5 mg/kg) 30 min later. Gp 7: saline followed by cisplatin (5 mg/kg) 30 min later. Gp 8: UTL-5g (60 mg/kg) followed by medium (saline) 30 min later. Gp 1-Gp 6 were daily ×5, but Gp 7 was by single dose on day 0 only. StDev is shown for each Gp (n=5 for each group except n=4 for Gp 7). * P<0.05, ** p<0.005 vs. medium control by Student's t-t (two-tailed).
To further investigate whether UTL-5g by itself would increase platelet count, the following small add-on study was conducted: • Gp 1: medium (saline) followed by medium (saline) 30 min later (same as Gp 1 before) • Gp 2: medium (saline) followed by cisplatin (2.5 mg/kg) 30 min later (same as Gp 2 before) • Gp 5: UTL-5g (60 mg/kg) followed by cisplatin (2.5 mg/kg) 30 min later (Same as Gp 5 before) • Gp 8: UTL-5g alone (60 mg/kg) followed by medium (saline) 30 min later (New Gp)

[2] = UTL-5g 15, 30, 60 mg/kg ip 30 min before cisplatin 2.5 mg/kg
[3] = ip 30 min before cisplatin 2.5 mg/kg, UTL-5g 15, 30, 60 mg/kg, amifostine 200 mg/kg

## Cc1cc(C(=O)Nc2ccc(Cl)cc2Cl)no1 [UTL-5g]
[1]; UTL-5g 60 mg/kg ip 30 min before cisplatin 2.5 mg/kg
  platelet count relative to control: > 3 times of the control
[1]; [2]
  ALT levels, effect of pretreatment: also reduced by UTL-5g; also recorded: lowered the elevated levels
  AST levels, effect of pretreatment: reduced by UTL-5g; also recorded: lowered the elevated levels
[1]; UTL-5g ip 30 min before cisplatin 2.5 mg/kg
  WBC count, effect of pretreatment: did not significantly increase the WBC count
[1]; [3]
  BUN levels, effect of pretreatment: suppressed by UTL-5g in a dose-dependent manner; also recorded: lowered the elevated levels
  creatinine, effect of pretreatment: Essentially the same results; also recorded: lowered the elevated levels
[1]; ip 30 min before cisplatin 2.5 mg/kg, UTL-5g 15, 30, 60 mg/kg, amifostine 200 mg/kg, vs Gp 1 (Control)
  platelet count, effect of pretreatment: increased platelet count in a dose-dependent manner
BDF1 mice; UTL-5g 60 mg/kg followed 30 min later by cisplatin 2.5 mg/kg or by saline
  platelet count: significantly increased platelet count
BDF1 mice; UTL-5g 60 mg/kg followed by cisplatin 2.5 mg/kg or saline
  WBC, protective effect: no significant protective effect
BDF1 mice; UTL-5g alone 60 mg/kg followed by saline, mice not treated by cisplatin
  platelet production, UTL-5g by itself: stimulated the production of platelets; also recorded: increased platelet counts
